Laboratory results published in patent US20210267939A1, “COMPOSITIONS AND METHODS FOR TREATING NAFLD/NASH AND RELATED DISEASE PHENOTYPES” (priority 2018, published 2021).

Tests used:
BCKDH = test: Tissue BCKDH activity assay in treated Zucker fatty rats; assay type: in vivo; conditions: ZFR, BT2 20 mg/kg i.p. daily for one week, vs vehicle
Description: Individually housed, male 12 week-old Zucker fatty rats (ZFR, Charles River Laboratories) maintained on a custom control low fat (LF) diet (A11072001, Research Diets) were used for the BDK inhibition and PPM1K overexpression studies. For the BDK inhibition study, ZFR were administered the small molecule BDK inhibitor 3,6-dichlorobenzo[b]thiophene-2-carboxylic acid (BT2, Sigma) daily at a dose of 20 mg/kg dissolved in 200 ul of sterile dimethylsulfoxide by i.p. injection for 7 days. The control group was administered an equal volume of vehicle each day. On day 6, following an overnight fast, ZFR were subjected to a 1 g/kg i.p. glucose tolerance test (GTT) precisely 1 hr after administration of BT2 (20 mg/kg i.p.) or vehicle. The glucose tolerance test was performed as described (White, et al., 2016). Following the GTT, rats were returned to their normal cages and provided free access to food and water. Indirect calorimetry was performed in a second cohort of BT2 treated rats on day 6 of BT2 administration. Here ad-libitum fed rats were injected with BT2 (20 mg/kg i.p.) or vehicle immediately prior to being placed in an eight-chamber Oxymax system (Columbus Instruments) for seven hours. During their time in the metabolic cages all rats had free access to food and water. The next morning, rats were euthanized in the fed state precisely 1 hr following a final dose of BT2 (20 mg/kg i.p.) or vehicle.
For the PPM1K overexpression study, male 12 week-old ZFR were administered two doses of cyclosporine (15 mg/kg i.p., Novartis) prior to adenovirus administration. The first dose of cyclosporine was given 24 hours prior and the second dose was administered immediately prior to tail vein injection of Ad-CMV-PPM1K or Ad-CMV-GFP adenovirus (2×10^12 viral particles per kg). Both viruses use the CMV promoter to drive transgene expression. […]
BCKDH activity assay: Tissue BCKDH activity was measured. […] The ^14CO2 contained in the trap was counted in a Beckman Coulter LS6500 liquid scintillation counter.

Zucker fatty rats = test: 1 g/kg i.p. glucose tolerance test in treated Zucker fatty rats; assay type: in vivo; conditions: ZFR, BT2 20 mg/kg i.p., day 6, 1 g/kg i.p. glucose, vs vehicle
Description: Individually housed, male 12 week-old Zucker fatty rats (ZFR, Charles River Laboratories) maintained on a custom control low fat (LF) diet (A11072001, Research Diets) were used for the BDK inhibition and PPM1K overexpression studies. For the BDK inhibition study, ZFR were administered the small molecule BDK inhibitor 3,6-dichlorobenzo[b]thiophene-2-carboxylic acid (BT2, Sigma) daily at a dose of 20 mg/kg dissolved in 200 ul of sterile dimethylsulfoxide by i.p. injection for 7 days. The control group was administered an equal volume of vehicle each day. […]
Plasma concentrations of the alpha-keto acids of leucine (α-keto-isocaproate, KIC), isoleucine (α-keto-β-methylvalerate, KMV) and valine (α-keto-isovalerate, KIV) were measured by LC-MS as previously described (Glynn et al., 2015; White et al., 2016). Other plasma analytes were measured on a Beckman DxC600 autoanalyzer, using reagents for lactate, total cholesterol, and triglycerides from Beckman, and non-esterified fatty acids (NEFA) and ketones (total and 3-hydroxybutyrate) from Wako (Richmond, Va.). Glycerol was measured using reagents from TG-B by Roche Diagnostics (Indianapolis, Ind.). Liver triglycerides were quantified using the triglyceride quantification kit from Abcam. Plasma insulin concentrations were measured with a Millipore EMD Rat insulin ELISA kit.

## O=C(O)c1sc2cc(Cl)ccc2c1Cl [BT2, 3,6-dichlorobenzo[b]thiophene-2-carboxylic acid]
BCKDH
  BCKDH enzyme activity in heart: increased
  BCKDH enzyme activity in liver: increased
  BCKDH enzyme activity in skeletal muscle: small increment
Zucker fatty rats
  glucose excursion during ipGTT: significantly smaller
  insulin excursion during ipGTT: significantly smaller
